Results published in the supplement of paper PMC10307832.

Columns and labels:
Test in all cases: relative viability (nuclei count vs DMSO), 5 days (fraction); higher = more cells survive
[1] = compound: COc1cccc2c1C(=O)c1c(O)c3c(c(O)c1C2=O)C[C@@](O)(C(=O)CO)C[C@@H]3O[C@H]1C[C@H](N)[C@H](O)[C@H](C)O1 [Doxorubicin] + CS(=O)(=O)CCNCc1ccc(-c2ccc3ncnc(Nc4ccc(OCc5cccc(F)c5)c(Cl)c4)c3c2)o1 [Lapatinib] (partner 2 µM)
How it was run: (§1)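 Lung cancer cell lines in 1536-well plates got either a single drug or a fixed anchor-drug dose together with five library-drug doses (not always all listed) in √10 steps, by pin tool, on the day after seeding. Nuclei were counted after 5 days, and relative viability is the treated-to-vehicle ratio of nuclei counts. Values are medians of duplicate plates.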

[2] = compound: COC1=C(C=C(C=C1)C2=CC3=NC=CN3C(=N2)NC4=C(C=CC=N4)C(=O)N)OC [BAY61-3606] + COc1cccc2cc(-c3nc([C@H]4CC[C@H](C(=O)O)CC4)n4ncnc(N)c34)[nH]c12 [OSI-027] (partner 0.5 µM)
How it was run: as §1

[3] = compound: COc1cccc2c1C(=O)c1c(O)c3c(c(O)c1C2=O)C[C@@](O)(C(=O)CO)C[C@@H]3O[C@H]1C[C@H](N)[C@H](O)[C@H](C)O1 [Doxorubicin] + CCNC(=O)c1noc(-c2cc(C(C)C)c(O)cc2O)c1-c1ccc(CN2CCOCC2)cc1 [Luminespib] (partner 0.01 µM)
How it was run: as §1

[4] = compound: COc1cccc2c1C(=O)c1c(O)c3c(c(O)c1C2=O)C[C@@](O)(C(=O)CO)C[C@@H]3O[C@H]1C[C@H](N)[C@H](O)[C@H](C)O1 [Doxorubicin] + NC(=O)Nc1cc(-c2cccc(F)c2)sc1C(=O)N[C@H]1CCCNC1 [AZD7762] (partner 0.2 µM)
How it was run: as §1

| Cell Line | relative viability ([1]; first compound 0.001 µM) | relative viability ([1]; first compound 0.003162 µM) | relative viability ([1]; first compound 0.01 µM) | relative viability ([1]; first compound 0.03162 µM) | relative viability ([1]; first compound 0.1 µM) | relative viability ([2]; first compound 0.02 µM) | relative viability ([2]; first compound 0.06325 µM) | relative viability ([2]; first compound 0.2 µM) | relative viability ([2]; first compound 0.6325 µM) | relative viability ([2]; first compound 2 µM) | relative viability ([3]; first compound 0.001 µM) | relative viability ([3]; first compound 0.003162 µM) | relative viability ([3]; first compound 0.01 µM) | relative viability ([3]; first compound 0.03162 µM) | relative viability ([3]; first compound 0.1 µM) | relative viability ([4]; first compound 0.001 µM) | relative viability ([4]; first compound 0.003162 µM) | relative viability ([4]; first compound 0.01 µM) | relative viability ([4]; first compound 0.03162 µM) | relative viability ([4]; first compound 0.1 µM) |
| --- | --- | --- | --- | --- | --- | --- | --- | --- | --- | --- | --- | --- | --- | --- | --- | --- | --- | --- | --- | --- |
| NCI-H1650 | 0.208 | 0.612 | 0.25 | 0.202 | 0.14 | 0.702 | 0.442 | 0.666 | 0.686 | 0.396 | 0.201 | 0.182 | 0.203 | 0.223 | 0.182 | – | – | – | – | – |
| IA-LM | 0.845 | 0.957 | 0.638 | 0.18 | 0.112 | – | – | – | – | – | – | – | – | – | – | – | – | – | – | – |
| NCI-H2228 | 0.971 | 0.962 | 0.65 | 0.187 | 0.119 | 0.885 | 0.451 | 0.594 | 0.495 | 0.293 | 0.208 | 0.139 | 0.2 | 0.151 | 0.135 | – | – | – | – | – |
| SK-MES-1 | 0.423 | 0.444 | 0.489 | 0.396 | 0.409 | 0.604 | 0.674 | 0.56 | 0.706 | 0.405 | 0.771 | 0.618 | 0.487 | 0.199 | 0.151 | – | – | – | – | – |
| HCC-366 | – | 1.09 | 1 | 0.168 | 0.145 | 1.07 | 0.875 | 0.81 | 0.862 | 0.715 | – | – | – | – | – | 0.278 | 0.234 | 0.233 | 0.117 | 0.0686 |
| SW 1573 | 0.978 | 1.21 | 1.15 | 0.75 | 0.559 | 0.613 | 0.552 | 0.51 | 0.63 | 0.325 | 0.22 | 0.206 | 0.178 | 0.0908 | 0.0847 | – | – | – | – | – |
| COR-L 105 | 0.372 | 0.358 | 0.321 | 0.287 | 0.283 | 0.843 | 0.645 | 0.726 | 0.704 | 0.468 | 0.678 | 0.754 | 0.691 | 0.595 | 0.363 | – | – | – | – | – |
| NCI-H2342 | – | – | – | – | – | 0.705 | 0.609 | 0.596 | 0.682 | 0.664 | 0.816 | 0.739 | 0.585 | 0.507 | 0.787 | 0.522 | 0.491 | 0.485 | 0.426 | 0.496 |
| SK-LU-1 | 0.822 | 1.09 | 0.669 | 0.523 | 0.55 | 0.357 | 0.366 | 0.317 | 0.285 | 0.227 | 0.204 | 0.215 | 0.249 | 0.203 | 0.165 | – | – | – | – | – |
| NCI-H1299 | 0.988 | 0.973 | 0.955 | 0.889 | 0.514 | – | – | – | – | – | – | – | – | – | – | – | – | – | – | – |
| A549 | 0.922 | 0.954 | 0.415 | 0.0939 | 0.0714 | – | – | – | – | – | – | – | – | – | – | – | – | – | – | – |
| NCI-H2023 | 0.226 | 0.734 | 0.252 | 0.134 | 0.11 | 0.471 | 0.359 | 0.37 | 0.402 | 0.19 | 0.765 | 0.677 | 0.243 | 0.0918 | 0.0632 | – | – | – | – | – |
| SW 900 | – | – | – | – | – | 0.616 | 0.529 | 0.612 | 0.747 | 0.427 | 0.176 | 0.152 | 0.162 | 0.167 | 0.175 | – | 0.647 | 0.604 | 0.45 | 0.358 |
| COR-L23 | 0.955 | 1.19 | 0.921 | 0.241 | 0.14 | 0.764 | 0.806 | 0.712 | 0.778 | 0.496 | 0.678 | 0.637 | 0.567 | 0.163 | 0.147 | – | – | – | – | – |
| ChaGo-K-1 | – | – | – | – | – | 0.537 | 0.533 | 0.519 | 0.495 | 0.639 | 0.614 | 0.592 | 0.651 | 0.52 | 0.54 | 0.857 | 0.922 | 0.873 | 0.846 | 0.811 |
| NCI-H520 | 0.881 | 0.965 | 0.753 | 0.48 | 0.248 | 0.247 | 0.364 | 0.364 | 0.296 | 0.212 | 0.249 | 0.242 | 0.266 | 0.18 | 0.217 | – | – | – | – | – |
| NCI-H661 | 0.506 | 0.515 | 0.492 | 0.498 | 0.493 | 0.707 | 0.742 | 0.734 | 0.699 | 0.505 | 0.915 | 0.909 | 0.858 | 0.574 | 0.378 | – | – | – | – | – |
| NCI-H1703 | 0.821 | 1.14 | 0.448 | 0.241 | 0.21 | – | – | – | – | – | – | – | – | – | – | 0.131 | 0.146 | 0.146 | 0.119 | 0.114 |
| NCI-H2009 | 0.912 | 0.245 | 0.763 | 0.376 | 0.283 | 0.754 | 0.686 | 0.681 | 0.597 | 0.348 | 1.07 | 0.979 | 1.01 | 0.925 | 0.582 | – | – | – | – | – |
| HCC-78 | 0.752 | 0.723 | 0.77 | 0.673 | 0.466 | 0.411 | 0.393 | 0.404 | 0.351 | 0.427 | – | – | – | – | – | 0.535 | 0.606 | 0.703 | 0.636 | 0.503 |
